Experimental data published in patent publication US8101760B2, “Glucocorticoid receptor modulator and methods of use” (Eli Lilly and Company, priority 2007, dated 2012).

Columns and labels:
[1] = biological target: T1, human MR (mineralocorticoid receptor) (Homo sapiens, UniProt P08235); experiment: Nuclear hormone receptor binding assay, MR
T1 construct: expressed in transfected cells; host or cells: HEK293 (lysate, '293-MR lysate')
T1 sequence (P08235 1-984): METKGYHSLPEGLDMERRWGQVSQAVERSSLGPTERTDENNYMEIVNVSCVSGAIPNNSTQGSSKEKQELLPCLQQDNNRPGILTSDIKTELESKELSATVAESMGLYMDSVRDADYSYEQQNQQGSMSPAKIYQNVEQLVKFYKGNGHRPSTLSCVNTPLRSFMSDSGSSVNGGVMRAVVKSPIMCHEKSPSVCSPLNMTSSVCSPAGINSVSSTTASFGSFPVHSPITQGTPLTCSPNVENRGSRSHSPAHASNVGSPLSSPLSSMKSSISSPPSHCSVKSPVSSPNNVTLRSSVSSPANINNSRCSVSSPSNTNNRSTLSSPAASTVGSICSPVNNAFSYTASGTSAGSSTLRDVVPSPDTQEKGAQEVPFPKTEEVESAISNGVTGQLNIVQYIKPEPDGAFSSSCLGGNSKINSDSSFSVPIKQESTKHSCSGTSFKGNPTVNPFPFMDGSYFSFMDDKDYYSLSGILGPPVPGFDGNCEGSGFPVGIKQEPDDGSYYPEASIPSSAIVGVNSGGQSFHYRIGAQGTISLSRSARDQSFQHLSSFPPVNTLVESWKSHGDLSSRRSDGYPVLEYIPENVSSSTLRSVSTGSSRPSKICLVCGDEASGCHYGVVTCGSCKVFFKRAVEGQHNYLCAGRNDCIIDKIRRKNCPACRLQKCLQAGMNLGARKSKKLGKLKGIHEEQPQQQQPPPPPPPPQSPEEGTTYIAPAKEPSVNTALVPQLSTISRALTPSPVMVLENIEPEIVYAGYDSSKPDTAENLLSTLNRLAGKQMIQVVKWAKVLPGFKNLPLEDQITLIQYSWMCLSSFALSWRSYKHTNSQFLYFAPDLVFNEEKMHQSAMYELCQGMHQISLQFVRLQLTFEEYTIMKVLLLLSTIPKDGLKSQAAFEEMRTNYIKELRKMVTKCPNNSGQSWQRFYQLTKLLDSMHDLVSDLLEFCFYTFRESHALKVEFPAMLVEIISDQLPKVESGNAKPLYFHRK
Method: Cell lysates from human embryonic kidney HEK293 cells overexpressing human GR (glucocorticoid receptor), AR (androgen receptor), MR (mineralocorticoid receptor), or PR (progesterone receptor) are used for receptor-ligand competition binding assays to determine Ki values.
Briefly, steroid receptor competition binding assays are run in a buffer containing 20 mM Hepes buffer (pH=7.6), 0.2 mM EDTA, 75 mM NaCl, 1.5 mM MgCl2, 20% glycerol, 20 mM sodium molybdate, 0.2 mM DTT (dithiothreitol), 20 μg/mL aprotinin and 20 μg/mL leupeptin. Typically, steroid receptor binding assays include radio-labeled ligands, such as 0.3 nM [^3H]-dexamethasone for GR binding, 0.36 nM [^3H]-methyltrienolone for AR binding, 0.25 nM [^3H]-aldosterone for MR binding, and 0.29 nM [^3H]-methyltrienolone for PR binding, and either 20 μg 293-GR lysate, 22 μg 293-AR lysate, 20 μg 293-MR lysate or 40 μg 293-PR lysate per well. Assays are typically run in 96-well format. Competing test compounds are added at various concentrations ranging from about 0.01 nM to 10 μM. Non-specific binding is determined in the presence of 500 nM dexamethasone for GR binding, 500 nM aldosterone for MR binding, or 500 nM methyltrienolone for AR and PR binding. […] After an incubation of 2 hours, plates are read in a Wallac Microbeta counter. […]

[2] = system: IL-1β-stimulated IL-6 production in human skin fibroblast CCD-39SK cells; experiment: GR-mediated transrepression: IL-1β-stimulated IL-6 production in CCD-39SK cells; assay type: cell-based; conditions: mean of 22 determinations, read-out: EC50, inhibition of IL-6 expression
Method: Glucocorticoid Receptor-Mediated Transrepression Assays: 1. IL-1β-Stimulated IL-6 Production in Human Skin Fibroblast CCD-39SK Cells:
Briefly, human skin fibroblast CCD-39SK cells (20,000 cells/well), obtained from the American Type Culture Collection (ATCC), Manassas, Va. U.S.A. (ATCC Catalog #CRL-1501) are seeded in 96-well plates in SF-GM (MEM) medium (ATCC Catalog #30-20030), supplemented with 10% fetal bovine serum (FBS), 100 U/mL penicillin, 100 μg/mL streptomycin and 2 mmol/L L-glutamine. Cells are maintained in a humidified chamber with 5% CO2 at 37° C. Test compounds are added to the wells in various concentrations ranging from a final concentration of about 4.65 pM to 4.64 μM. 0.1 μM of dexamethasone is used as a positive control. 1-hour post treatment with test compound, IL-1β is added at final concentration of 1 ng/mL and the reaction mixture is incubated overnight. IL-6 concentrations are measured with an ELISA Kit (R&D Systems, Inc., Minneapolis, Minn., U.S.A.) using standard techniques. Briefly, take 10 μL of supernatant from each well and add 90 μL of assay buffer. IL-6 concentrations are quantified by reading absorbance at 450 nm. A standard curve of absorbance versus IL-6 concentration is constructed and used to determine the concentration of IL-6 in experimental samples.

[3] = Bioavailability and plasma exposure after oral administration to test animals; assay type: in vivo
[4] = system: human hepatocyte cultures; experiment: Metabolism in human hepatocyte cultures in vitro; assay type: in vitro ADME
[5] = Hygroscopicity and solid-state stability; assay type: physicochemical

Question: With `CC/C(=C1\c2ccc(Cl)cc2OCc2ncccc21)c1cccc(NS(C)(=O)=O)c1` [Compound (I), (E)-N-{3-[1-(8-Chloro-11H-10-oxa-1-aza-dibenzo[a,d]cyclohepten-5-ylidene)-propyl]-phenyl}-methanesulfonamide] as the compound, how does the Ki ([1]; HEK293 cell lysate expressing human MR, [3H]-aldosterone, mean of 5 determinations) read?
Answer: 117 nM

Question: And the “greater affinity for GR relative to MR” value ([1]; binding selectivity GR vs MR)?
Answer: ≥ 30 fold

Question: And the EC50 [2]?
Answer: ~4.8 nM

Question: What about the bioavailability [3] of the same compound?
Answer: good

Question: And the plasma exposure [3]?
Answer: good

Question: And the “metabolism when incubated with human hepatocyte cultures” value [4]?
Answer: only minor metabolism

Question: And the hygroscopicity [5]?
Answer: non-hygroscopic

Question: And the stability ([5]; increased temperature, relative humidity, and light exposure)?
Answer: stable
